Assay results: ChEMBL document CHEMBL1158459, “Discovery of a peroxisome proliferator activated receptor gamma (PPARgamma) modulator with balanced PPARalpha activity for the treatment of type 2 diabetes and dyslipidemia” (J Med Chem, 2009)
pEC50, pIC50: −log10 of the molar value. Active and inactive are the calls of the source. No cut-off for these calls is given here.

Experiments:
Rattus norvegicus [1] = test: Antidiabetic activity in Zucker fa/fa rat assessed as decrease in free fatty acid levels at 1 mg/kg, po once daily for 7 days; format: functional, organism-based; design: dose 1 mg/kg
[2] = Cmax in C57BLKS/J-m+/+Leprdb db/db mouse at 10 mg/kg, po once daily for 11 days; format: ADME, organism-based; design: dose 10 mg/kg, route oral; settings: in vivo
[3] = molecular target: Estrogen receptor beta (Homo sapiens) (UniProt Q92731); test: Binding affinity to ERbeta up to 10 uM
Estrogen receptor beta (Homo sapiens), sequence (Q92731 whole entry): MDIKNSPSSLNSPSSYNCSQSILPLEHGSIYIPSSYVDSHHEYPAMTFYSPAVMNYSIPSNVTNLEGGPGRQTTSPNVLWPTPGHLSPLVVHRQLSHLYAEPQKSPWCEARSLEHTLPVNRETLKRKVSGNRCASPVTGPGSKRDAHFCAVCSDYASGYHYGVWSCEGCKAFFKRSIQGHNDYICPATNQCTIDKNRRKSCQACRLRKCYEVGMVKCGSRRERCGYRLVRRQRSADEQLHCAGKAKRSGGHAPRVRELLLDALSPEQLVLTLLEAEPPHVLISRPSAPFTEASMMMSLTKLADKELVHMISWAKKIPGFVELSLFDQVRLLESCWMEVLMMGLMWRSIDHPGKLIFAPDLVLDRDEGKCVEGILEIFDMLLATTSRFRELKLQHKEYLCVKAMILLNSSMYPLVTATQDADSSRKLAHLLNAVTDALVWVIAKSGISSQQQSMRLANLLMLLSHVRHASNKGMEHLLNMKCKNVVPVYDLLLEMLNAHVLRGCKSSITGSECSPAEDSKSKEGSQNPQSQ

[4] = Cmax in Syrian golden hamster at 0.3 mg/kg, po once daily for 9 days; format: ADME, organism-based, Mesocricetus auratus; design: dose 0.3 mg/kg, route oral; settings: in vivo
[5] = molecular target: Estrogen receptor (Homo sapiens) (UniProt P03372); test: Activity at ERalpha receptor up to 10 uM by transactivation assay
Estrogen receptor (Homo sapiens), sequence (P03372 whole entry): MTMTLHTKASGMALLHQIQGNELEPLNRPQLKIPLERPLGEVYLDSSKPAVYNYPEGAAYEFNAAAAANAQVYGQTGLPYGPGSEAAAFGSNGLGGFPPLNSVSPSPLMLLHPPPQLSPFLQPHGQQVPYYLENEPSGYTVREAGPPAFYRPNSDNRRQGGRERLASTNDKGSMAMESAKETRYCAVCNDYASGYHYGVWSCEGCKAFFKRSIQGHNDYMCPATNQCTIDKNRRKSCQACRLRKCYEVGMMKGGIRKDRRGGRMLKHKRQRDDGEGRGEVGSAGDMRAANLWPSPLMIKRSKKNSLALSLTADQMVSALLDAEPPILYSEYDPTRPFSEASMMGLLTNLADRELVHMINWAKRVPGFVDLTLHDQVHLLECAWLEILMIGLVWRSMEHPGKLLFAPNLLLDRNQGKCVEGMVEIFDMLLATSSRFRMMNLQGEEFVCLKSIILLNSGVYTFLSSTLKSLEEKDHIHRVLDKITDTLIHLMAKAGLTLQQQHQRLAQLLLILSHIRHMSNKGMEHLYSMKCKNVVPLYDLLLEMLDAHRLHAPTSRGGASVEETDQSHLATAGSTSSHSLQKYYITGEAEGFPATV

Canis familiaris [6] = test: Antidiabetic activity in Beagle dog assessed as reduction in total cholesterol level at 3 mg/kg, po once daily for 14 days relative to control; format: functional, Canis lupus familiaris; design: scale not given: the % may be the effect or the level left
Rattus norvegicus [7] = test: Antidiabetic activity in Zucker fa/fa rat assessed as decrease in triglyceride levels at 0.3 mg/kg, po once daily for 7 days; format: functional, organism-based; design: dose 0.3 mg/kg
[8] = AUC in Beagle dog at 1 mg/kg, po once daily for 14 days; format: ADME, organism-based, Canis lupus familiaris; design: dose 1 mg/kg, route oral; settings: plasma
Rattus norvegicus [9] = test: Toxicity in Zucker fa/fa rat assessed as increase in heart weight at 10 mg/kg, po treated once daily for 7 days; format: organism-based; design: dose 10 mg/kg, route oral; settings: in vivo, 168 h
[10] = Cmax in Beagle dog at 3 mg/kg, po once daily for 14 days; format: ADME, organism-based, Canis lupus familiaris; design: dose 3 mg/kg, route oral; settings: in vivo
Rattus norvegicus [11] = test: Antidiabetic activity in Zucker fa/fa rat assessed as decrease in triglyceride levels at 15 mg/kg, po once daily for 7 days; format: functional, organism-based; design: dose 15 mg/kg
Rattus norvegicus [12] = test: Antidiabetic activity in Zucker fa/fa rat assessed as decrease in free fatty acid levels at 100 mg/kg, po once daily for 7 days; format: functional, organism-based; design: dose 100 mg/kg
[13] = molecular target: Thyroid hormone receptor beta (Homo sapiens) (UniProt P10828); test: Binding affinity to TRbeta up to 10 uM
Thyroid hormone receptor beta (Homo sapiens), sequence (P10828 whole entry): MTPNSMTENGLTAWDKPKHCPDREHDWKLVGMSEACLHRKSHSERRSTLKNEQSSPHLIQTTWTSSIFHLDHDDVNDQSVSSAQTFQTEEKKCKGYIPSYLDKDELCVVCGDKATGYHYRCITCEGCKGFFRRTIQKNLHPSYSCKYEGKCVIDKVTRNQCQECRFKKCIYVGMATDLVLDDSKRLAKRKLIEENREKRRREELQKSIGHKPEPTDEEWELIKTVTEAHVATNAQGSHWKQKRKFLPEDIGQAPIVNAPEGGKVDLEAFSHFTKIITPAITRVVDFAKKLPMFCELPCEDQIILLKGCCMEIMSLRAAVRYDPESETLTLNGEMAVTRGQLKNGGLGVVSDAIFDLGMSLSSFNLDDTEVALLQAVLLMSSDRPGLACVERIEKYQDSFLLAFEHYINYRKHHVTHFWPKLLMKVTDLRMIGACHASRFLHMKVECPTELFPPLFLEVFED

[14] = AUC in Syrian golden hamster at 0.3 mg/kg, po once daily for 9 days; format: ADME, organism-based, Mesocricetus auratus; design: dose 0.3 mg/kg, route oral; settings: plasma
Mus musculus [15] = test: Antidiabetic activity in C57BLKS/J-m+/+Leprdb db/db mouse assessed as reduction in plasma glucose levels at 10 mg/kg, po once daily for 11 days relative to control; format: functional; design: scale not given: the % may be the effect or the level left
Mus musculus [16] = test: Antidiabetic activity in C57BLKS/J-m+/+Leprdb db/db mouse assessed as reduction in plasma triglyceride levels at 10 mg/kg, po once daily for 11 days relative to control; format: functional; design: scale not given: the % may be the effect or the level left
Rattus norvegicus [17] = test: Toxicity in Zucker fa/fa rat assessed as increase in heart weight at 15 mg/kg, po treated once daily for 7 days; format: organism-based; design: dose 15 mg/kg, route oral; settings: in vivo, 168 h
Rattus norvegicus [18] = test: Toxicity in Sprague-Dawley rat assessed as increase in liver weight at 60 mg/kg, po once daily for 14 days; format: organism-based; design: dose 60 mg/kg, route oral; settings: in vivo, 336 h
Mus musculus [19] = test: Antidiabetic activity in ob/ob mouse assessed as insulin correction at 10 mg/kg, po once daily for 5 days relative to control; format: functional
Canis familiaris [20] = test: Antidiabetic activity in Beagle dog assessed as reduction in total cholesterol level at 1 mg/kg, po once daily for 14 days relative to control; format: functional, Canis lupus familiaris; design: scale not given: the % may be the effect or the level left
[21] = Cmax in Beagle dog at 1 mg/kg, po once daily for 14 days; format: ADME, organism-based, Canis lupus familiaris; design: dose 1 mg/kg, route oral; settings: in vivo
Rattus norvegicus [22] = test: Antidiabetic activity in po dosed Zucker fa/fa rat assessed as insulin lowering activity treated once daily for 7 days; format: functional
Rattus norvegicus [23] = test: Antidiabetic activity in Zucker fa/fa rat assessed as decrease in free fatty acid levels at 0.03 mg/kg, po once daily for 7 days; format: functional, organism-based; design: dose 0.03 mg/kg
Mus musculus [24] = test: Antidiabetic activity in C57BLKS/J-m+/+Leprdb db/db mouse assessed as reduction in plasma glucose levels at 3 mg/kg, po once daily for 11 days relative to control; format: functional; design: scale not given: the % may be the effect or the level left
[25] = AUC in Syrian golden hamster at 1 mg/kg, po once daily for 9 days; format: ADME, organism-based, Mesocricetus auratus; design: dose 1 mg/kg, route oral; settings: plasma
[26] = molecular target: T1, Peroxisome proliferator-activated receptor alpha (Mus musculus, UniProt P23204); test: Agonist activity at mouse PPARalpha receptor expressed in african green monkey COS1 cells co-transfected with fused yeast Gal4-DBD by transactivation assay; format: functional, cell-based, COS-1
T1 sequence (P23204 whole entry): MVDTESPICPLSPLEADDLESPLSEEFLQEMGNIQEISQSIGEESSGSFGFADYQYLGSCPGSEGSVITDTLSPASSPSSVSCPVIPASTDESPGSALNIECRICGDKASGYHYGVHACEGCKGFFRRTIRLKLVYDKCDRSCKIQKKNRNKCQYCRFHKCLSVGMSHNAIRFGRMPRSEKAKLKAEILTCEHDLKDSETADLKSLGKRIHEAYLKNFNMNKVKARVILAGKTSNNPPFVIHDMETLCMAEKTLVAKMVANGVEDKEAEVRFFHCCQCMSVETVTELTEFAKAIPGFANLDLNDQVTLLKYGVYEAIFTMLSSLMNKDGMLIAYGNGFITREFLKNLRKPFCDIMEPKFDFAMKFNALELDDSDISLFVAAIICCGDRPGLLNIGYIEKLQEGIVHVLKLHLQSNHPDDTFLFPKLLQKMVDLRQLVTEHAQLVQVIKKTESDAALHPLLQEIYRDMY

[27] = molecular target: Estrogen receptor beta (Homo sapiens) (UniProt Q92731); test: Activity at ERbeta receptor up to 10 uM by transactivation assay
Rattus norvegicus [28] = test: Toxicity in Sprague-Dawley rat assessed as increase bilirubin levels at 60 mg/kg, po once daily for 14 days; format: organism-based; design: dose 60 mg/kg, route oral; settings: in vivo, 336 h
[29] = molecular target: Retinoic acid receptor RXR-alpha (Homo sapiens) (UniProt P19793); test: Binding affinity to RXRalpha up to 10 uM
Retinoic acid receptor RXR-alpha (Homo sapiens), sequence (P19793 whole entry): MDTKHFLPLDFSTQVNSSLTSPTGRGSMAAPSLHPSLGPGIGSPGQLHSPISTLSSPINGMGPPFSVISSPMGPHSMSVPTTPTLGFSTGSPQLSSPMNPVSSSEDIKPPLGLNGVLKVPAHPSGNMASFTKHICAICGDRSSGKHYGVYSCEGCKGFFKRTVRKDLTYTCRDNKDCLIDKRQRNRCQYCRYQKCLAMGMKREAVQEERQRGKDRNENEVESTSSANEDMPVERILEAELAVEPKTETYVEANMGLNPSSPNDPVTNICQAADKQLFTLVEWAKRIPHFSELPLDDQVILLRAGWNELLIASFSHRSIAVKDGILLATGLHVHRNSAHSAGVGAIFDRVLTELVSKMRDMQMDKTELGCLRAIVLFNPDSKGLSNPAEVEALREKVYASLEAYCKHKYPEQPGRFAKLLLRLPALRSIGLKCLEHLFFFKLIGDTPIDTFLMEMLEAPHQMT

[30] = molecular target: Glucocorticoid receptor (Homo sapiens) (UniProt P04150); test: Activity at GR receptor up to 10 uM by transactivation assay
Glucocorticoid receptor (Homo sapiens), sequence (P04150 whole entry): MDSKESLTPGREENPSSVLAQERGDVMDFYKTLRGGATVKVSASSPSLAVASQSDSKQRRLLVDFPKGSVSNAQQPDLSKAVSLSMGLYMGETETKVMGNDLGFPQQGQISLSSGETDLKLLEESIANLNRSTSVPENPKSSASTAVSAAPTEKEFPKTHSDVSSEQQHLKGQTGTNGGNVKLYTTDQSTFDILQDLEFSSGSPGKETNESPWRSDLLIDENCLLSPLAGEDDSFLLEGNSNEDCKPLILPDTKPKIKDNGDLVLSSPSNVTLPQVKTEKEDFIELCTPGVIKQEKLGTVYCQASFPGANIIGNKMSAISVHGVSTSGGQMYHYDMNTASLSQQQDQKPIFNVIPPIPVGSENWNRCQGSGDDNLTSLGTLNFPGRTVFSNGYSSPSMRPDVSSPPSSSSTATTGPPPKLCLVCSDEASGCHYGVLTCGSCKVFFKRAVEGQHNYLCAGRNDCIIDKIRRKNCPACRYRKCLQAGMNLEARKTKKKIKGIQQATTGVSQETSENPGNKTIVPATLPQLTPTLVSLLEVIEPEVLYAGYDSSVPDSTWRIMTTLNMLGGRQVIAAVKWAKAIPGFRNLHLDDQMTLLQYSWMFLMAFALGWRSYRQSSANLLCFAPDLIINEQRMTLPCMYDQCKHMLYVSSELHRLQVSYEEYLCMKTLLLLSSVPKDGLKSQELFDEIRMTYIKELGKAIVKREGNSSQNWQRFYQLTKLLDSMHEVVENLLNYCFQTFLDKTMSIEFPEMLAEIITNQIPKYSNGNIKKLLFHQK

Rattus norvegicus [31] = test: Toxicity in Zucker fa/fa rat assessed as increase in plasma volume at 15 mg/kg, po treated once daily for 7 days; format: organism-based; design: dose 15 mg/kg, route oral; settings: in vivo, 168 h
Mus musculus [32] = test: Antidiabetic activity in ob/ob mouse assessed as insulin correction at 3 mg/kg, po once daily for 5 days relative to control; format: functional
[33] = molecular target: T2, Peroxisome proliferator-activated receptor gamma (Homo sapiens, UniProt P37231)
T2 sequence (P37231 whole entry): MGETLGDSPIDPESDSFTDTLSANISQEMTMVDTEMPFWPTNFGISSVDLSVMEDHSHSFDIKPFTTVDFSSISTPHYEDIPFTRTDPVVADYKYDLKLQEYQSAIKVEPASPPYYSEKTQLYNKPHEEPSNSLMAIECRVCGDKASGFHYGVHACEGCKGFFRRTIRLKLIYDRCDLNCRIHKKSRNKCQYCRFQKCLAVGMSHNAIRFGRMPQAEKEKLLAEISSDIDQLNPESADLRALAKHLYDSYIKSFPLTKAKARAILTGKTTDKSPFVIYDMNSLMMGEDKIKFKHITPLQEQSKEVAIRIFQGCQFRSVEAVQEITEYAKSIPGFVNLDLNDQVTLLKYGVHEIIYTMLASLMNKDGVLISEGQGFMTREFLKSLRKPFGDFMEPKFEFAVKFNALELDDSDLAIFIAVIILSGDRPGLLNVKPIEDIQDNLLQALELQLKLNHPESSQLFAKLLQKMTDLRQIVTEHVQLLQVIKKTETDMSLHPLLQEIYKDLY
Description: Inhibition of human PPARgamma receptor by scintillation proximity assay

## CC[C@@H](Oc1cccc(Cn2c(C)c(C(=O)c3ccc(Cl)cc3)c3ccc(OC(F)(F)F)cc32)c1)C(=O)O
Rattus norvegicus [1]
  Activity: Active
[2]
  Cmax: 9.6 µM
[3]
  Activity: inactive
[4]
  Cmax: 0.02 µM
[5]
  Activity: inactive
Canis familiaris [6]
  Activity: 26%
Rattus norvegicus [7]
  Activity: Active
[8]
  AUC at 336 h: 5.41 µM·h
Rattus norvegicus [9]
  Activity: Toxic
[10]
  Cmax: 18.6 µM
Rattus norvegicus [11]
  Activity: Active
Rattus norvegicus [12]
  Activity: Active
[13]
  Activity: inactive
[14]
  AUC at 216 h: 0.13 µM·h
Mus musculus [15]
  Activity: 101%
Mus musculus [16]
  Activity: 84%
Rattus norvegicus [17]
  Activity: Non-toxic
Rattus norvegicus [18]
  Activity: 127%
Mus musculus [19]
  Activity: 89%
Canis familiaris [20]
  Activity: 12.8%
[21]
  Cmax: 1.03 µM
Rattus norvegicus [22]
  ED50: 10 µM·h
Rattus norvegicus [23]
  Activity: Active
Mus musculus [24]
  Activity: 98%
[25]
  AUC at 216 h: 0.55 µM·h
[26]
  pEC50: 6.92
[27]
  Activity: inactive
Rattus norvegicus [28]
  Activity: 48%
[29]
  Activity: inactive
[30]
  Activity: inactive
Rattus norvegicus [31]
  Activity: Non-toxic
Mus musculus [32]
  Activity: 67%
[33]
  pIC50: 8.05
